We go through one compound from patent US20230407265A1, “COMPOSITION AND METHODS FOR 3D CULTURE OF ISLET CELLS” (CITY OF HOPE, priority 2022, published 2023).

In the data set the test system is human islets. Put plainly: Islet viability and morphology assessment (PI/HO or FDA, DTZ staining). It is filed as cell-based. The note with it: 4 weeks in 3D hydrogel with 100 nM gastrin. On the procedure: Islet cells were stained with 10 μg/mL propidium iodide (PI) (Millipore Sigma, St. Louis, MO, USA) and 10 μg/mL of Hoechst 33342 (HO) (Thermo Fisher Scientific, Waltham, MA) for 5 minutes at room temperature, washed with PBS, then placed on a 6-well plate. The images of PI/HO staining were taken under a IXDP50 Olympus fluorescent microscope with DP74 camera using a 4× objective lens (Olympus America). Viability was determined by the area of PI staining divided by the area of HO staining analyzed by CellSens software. For the experiment with gastrin culture, 0.5 μM Fluorescein diacetate (FDA) solution (Millipore Sigma) was used instead of HO to determine the viable total islets. The viability was determined by the area of PI staining divided by the total islet area analyzed by CellSens software. Islet morphology was evaluated by dithizone (DTZ) staining.

Non-standard residues stand in square brackets, D forms with d. Residues, ends and D or L forms follow the SMILES beside them. pGlu = O=C1CC[C@@H](C(=O)O)N1

Consider `CC(C)C[C@H](NC(=O)[C@H](Cc1c[nH]c2ccccc12)NC(=O)CNC(=O)[C@H](Cc1ccc(O)cc1)NC(=O)[C@H](C)NC(=O)[C@H](CCC(=O)O)NC(=O)[C@H](CCC(=O)O)NC(=O)[C@H](CCC(=O)O)NC(=O)[C@H](CCC(=O)O)NC(=O)[C@H](CCC(=O)O)NC(=O)[C@H](CC(C)C)NC(=O)[C@H](Cc1c[nH]c2ccccc12)NC(=O)[C@@H]1CCCN1C(=O)CNC(=O)[C@@H]1CCC(=O)N1)C(=O)N[C@@H](CC(=O)O)C(=O)N[C@@H](Cc1ccccc1)C(N)=O` [gastrin, [Leu15]-gastrin I] ([pGlu]GPWLEEEEEAYGWLDF-NH2), for which the islet viability is listed as 92±6%.
